Results on one molecule are retold here after patent publication US11197856B2, “Bicyclic compounds and methods for their use in treating autism” (priority 2013, dated 2021).

Assay [1] concerns fmr1-knockout mice and wild-type littermates. Put plainly: Open Field (OF) test. It is filed as in vivo. As to conditions: for exploratory behavior (number of squares entered): fmr1-knockout animals; for number of squares entered: wild-type animals. The protocol: The fmr1-knockout 2 mice (C57BL/6 background) were housed in groups of the same genotype in a temperature and humidity controlled room with a 12-h light-dark cycle (lights on 7 am to […]). Testing was conducted during the light phase. Food and water were available ad libitum. Testing was conducted on fmr1-knockout mice and their wild-type littermates. Experiments were conducted in line with the requirements of the UK Animals (Scientific Procedures) Act, 1986.
The Open Field (OF) test is a combined test that is used to determine anxiety/hyperactivity, and for habituation to a novel environment, one of the most elementary forms of learning, in which decreased exploration as a function of repeated exposure to the same environment is taken as an index of memory. This is normally studied in two sessions of exposure to the open field, a 10-min and a 24 hr habituation session.
The device used for this study is a grey PVC enclosed arena 50×30 cm divided into 10 cm squares. Mice are brought to the experimental room 5-20 min before testing. A mouse is placed into a corner square facing the corner and observed for 3 min. The number of squares entered (whole body) and rears (both front paws off the ground, but not as part of grooming) are counted. The latency to the first rear is also noted. The movement of the mouse around the field was recorded with a video tracking device for 300s (vNT4.0, Viewpoint). The latency for the mouse to enter the brightest, central part of the field total time spent in this central region, and total activity (in terms of path length in centimeters), were recorded.
The open field (OF) test is a test used to characterize explorative behavior, anxiety, and or hyperactivity in animals habituated to daily handling under novel and familiar conditions. During exposure to the open field mice will habituate to the environment and thus explore less, decreasing the amount movement they show over time.
In the present experiment, we recorded movement and rearing during an initial exposure (T1), during a second exposure after 10 minutes (T2) and during a third exposure after 24 hours (T3). Failures to reduce locomotion or rearing at 10 minutes and 24 hours indicate deficits in short and long term memory, respectively.

Assay [2] has as its system fmr1-knockout mice and wild-type mice. The assay can be described thus: Elevated Plus Maze. It is filed as in vivo. An excerpt:
In another study, we used an “Elevated Plus Maze.” The Elevated Plus Maze test is one of the most widely used tests for measuring anxiety-like hyperactivity in mice. The test is based on the natural aversion of mice for open and elevated areas, as well as on their natural spontaneous exploratory behavior in novel environments. FIG. 23 depicts a photograph of a device used in this study. The apparatus consists of two open arms and two closed arms, crossed in the middle perpendicularly to each other, and a center area. The open arms are more exposed and therefore create more anxiety in the mice. Mice therefore spend more time in the closed arms and visit them more frequently. Mice were given access to all of the arms and were allowed to move freely between them. The number of entries into the open arms, the time spent in the open arms, and time spent in the center were used as indices of open space-induced anxiety.

Assay [3] concerns hippocampal LTP in MeCP2 deficient mice. Put plainly: Hippocampal long-term potentiation (fEPSP slope) in MeCP2 deficient mice. Particulars: MeCP2 deficient mice at 9 weeks; vs saline. The class given is in vivo. An excerpt:
MeCP2 deficient mice have been previously reported to suffer from functional and ultrastructural synaptic dysfunction, significant impairment of hippocampus-dependent memory and hippocampal long-term potentiation (LTP) (Moretti et al. The Journal of Neuroscience. 2006. 26(1):319-327). To test the effects of the cG-2-AllylP treatment on synaptic function in the RTT model we compare hippocampal LTP in both vehicle and cG-2-AllylP-treated animals at 9 weeks of age. To do so, we measure the slope of the fEPSP as a % of baseline potential in neurons in slices of hippocampus from MeCP2 deficient mice treated with either saline or cG-2-AllylP.

The test system of another assay is hippocampal CA1 neurons. The assay can be described thus: Dendritic arborization, dendritic and spine length after Golgi staining, mecp2 knockout mice. The class given is in vivo. The protocol: We assess the effects of cG-2-AllylP treatment on dendrites. Transgenic mecp2 knockout mice (n=15 to 20) are administered cG-2-AllylP intraperitoneally at a dose of 20 mg/kg once daily. Following sacrifice dendritic spine density, spine length and aborization are examined after Golgi staining after nine weeks, according to Table 5 below.
Dendritic length is assessed by distance from the soma of representative hippocampal CA1 neurons from 9 week old male mecp2 null mutant mice treated with either saline (3 neurons analysed from 3 separate mice, n=9) or cG-2-AllylP (20 mg/kg i.p. 1/day, from week 4; 3 neurons are analysed from 3 separate mice, n=9).

The subject of the next assay is layer 5 cortical neurons. The assay can be described thus: Intracellular whole-cell recordings of spontaneous EPSCs in acute brain slices. The class given is in vivo, mice. As to conditions: MeCP2-/y animals; 20 mg/kg daily; vs vehicle.
The test system of assay [4] is Male patients having Fragile X Syndrome.
Protocol: Symptoms are evaluated using one or more of the clinical evaluative tools discussed herein above. Each patient is scored according to one or more clinical evaluative tool for one or more of Repetitive Behavior (RBB), Anxiety, and Sociability. A Clinical Global Impression-Severity (CGI-S) score of 4 or greater, or an ABC total score of 30 or greater are enrolled.
The enrolled patients are divided into groups. […] Placebo (n=20) is strawberry diluent and water.
Efficacy is determined using Clinical Global Impression of Severity (CGI-S), Clinical Global Impression of Improvement (CGI-I), Fragile X Syndrome Rating Scale, clinician-completed Fragile X Domain Specific Concerns (Visual Analog Scale), Caregiver Top Three Concerns (Visual Analogue Scale), Aberrant Behavior Checklist, Vineland Adaptive Behavior Scale, CASI-16, CYBOCS-PDD, seizure diary, computerized eye tracking, computerized measurement of cognition using the KiTap, and the Expressive Language Sampling Task.
Serum levels and changes of standard hematology and chemistry parameters (including thyroid function) are calculated from Baseline through to Day 70. Fundoscopy and tonsil size is documented at Baseline, and Days 14, 28, 42, 36, 70 and 84. […] ECG is assessed at Screening, Baseline, Days 28, 42, 36 and 70. […]

Regarding `C=CC[C@]12CCCN1C(=O)CNC2=O` [cG-2-AllylP, (8aS)-Allyl-hexahydropyrrolo[1,2-a]pyrazine-1,4-dione], the “exploratory behavior (number of squares entered)” value is recorded as “significantly reduced the exploratory behavior of fmr1-knockout animals” in assay [1] (T1), “normalized the magnitude of their behavior to that of the wild-type animals” in assay [1] (T2 (10 minutes)) and “normalized exploratory behavior at T3” in assay [1] (T3 (24 hours)). Further, the “number of squares entered” value in assay [1] (T1) was “about the same number of squares”; in assay [1] (T2 (10 minutes)), “about 45 squares”; in assay [1] (T3 (24 hours)), 25-30 squares. Besides, the “time spent in the closed arm” value in assay [2] (fmr1-knockout animals) is recorded as “normalized the time spent in the closed arm”; in assay [2] (wild-type mice), “about the same amount of time in the closed arm”. Also, in assay [2] (fmr1-knockout animals), the “time spent in the open arms” value is listed as “normalized the time spend in the open arms”. Besides, the “time spent in the center” value is on record as “significantly less time than vehicle-treated fmr1-knockout animals” in assay [2] (fmr1-knockout mice, p<0.001) and “slightly less time in the center than did vehicle-treated wild-type animals” in assay [2] (wild-type mice). Moreover, the “slope of fEPSP (hippocampal LTP)” value in assay [3] was “increases the slope of fESPS”. For the same molecule, the “dendritic length by distance from the soma” value in the assay with hippocampal CA1 neurons (hippocampal CA1 neurons, vs saline) is “produces longer dendrites over much of the range of distances from the somas”. Besides, the “dendritic arborization and dendritic spine length” value in the assay on hippocampal CA1 neurons (mecp2 knockout mice, 20 mg/kg i.p. once daily, nine weeks) was “improves dendritic arborization and increases dendritic spine length”. In the assay on layer 5 cortical neurons, the EPSC amplitude result was “significantly larger in amplitude”. For the same molecule, the “clinical outcomes (evaluative tools)” value in assay [4] (35 or 70 mg/kg b.i.d. oral, 28 days) was “clinically relevant and significant effects to improve clinical outcomes”. In assay [4] (peripheral lymphocytes), the “pERK and pAkt levels” value is “normalizes pERK and pAkt levels”.
